Measured values taken from publication PMC5218480 (PLoS ONE, 2017).

Tested on: MV-4-11 cells
Assay: Gene expression microarray analysis (Affymetrix PrimeView) and GSEA
Type: cell-based, human
Parameters: RFU PODN (11730768_x_at) / Fold change /veh PODN (11730768_x_at) / RFU LINC00158 (11744669_a_at) / Fold change /veh LINC00158 (11744669_a_at) / RFU DUSP10 (11751237_a_at) / Fold change /veh DUSP10 (11751237_a_at) / RFU ID3 (11757404_x_at) / Fold change /veh ID3 (11757404_x_at) / RFU PLEKHG5 (11737974_s_at) / Fold change /veh PLEKHG5 (11737974_s_at) / RFU LRRC4B (11730491_at) / Fold change /veh LRRC4B (11730491_at) / RFU GIMAP4 (11747438_a_at) / Fold change /veh GIMAP4 (11747438_a_at) / RFU KRT8 (11758183_x_at) / Fold change /veh KRT8 (11758183_x_at) / RFU CNN1 (11734310_a_at) / Fold change /veh CNN1 (11734310_a_at) / RFU VPS37D (11726825_at) / Fold change /veh VPS37D (11726825_at) / RFU C10orf10 (11716522_x_at) / Fold change /veh C10orf10 (11716522_x_at) / RFU KIR2DL2 /// KIR2DL4 /// KIR2DL5A /// KIR2DL5B /// KIR2DS1 /// KIR2DS2 /// KIR2DS3 /// KIR2DS4 /// KIR3DL3 /// KIR3DL3 /// KIR3DS1 (11738374_at) / Fold change /veh KIR2DL2 /// KIR2DL4 /// KIR2DL5A /// KIR2DL5B /// KIR2DS1 /// KIR2DS2 /// KIR2DS3 /// KIR2DS4 /// KIR3DL3 /// KIR3DL3 /// KIR3DS1 (11738374_at) / RFU C1QL1 (11718748_at) / Fold change /veh C1QL1 (11718748_at) / RFU TMPRSS4 (11747572_a_at) / Fold change /veh TMPRSS4 (11747572_a_at) / RFU HAMP (11756126_x_at) / Fold change /veh HAMP (11756126_x_at) / RFU RNFT2 (11725882_a_at) / Fold change /veh RNFT2 (11725882_a_at) / RFU NR4A2 (11747474_a_at) / Fold change /veh NR4A2 (11747474_a_at) / RFU ABCC12 (11746883_a_at) / Fold change /veh ABCC12 (11746883_a_at) / RFU TMEM136 (11760407_x_at) / Fold change /veh TMEM136 (11760407_x_at) / RFU CLDN22 /// WWC2 (11732394_at) / Fold change /veh CLDN22 /// WWC2 (11732394_at) / RFU HLA-DPB1 (11760878_x_at) / Fold change /veh HLA-DPB1 (11760878_x_at) / RFU SPINT1 (11716480_a_at) / Fold change /veh SPINT1 (11716480_a_at) / RFU GAP43 (11754022_s_at) / Fold change /veh GAP43 (11754022_s_at) / RFU A4GNT (11735810_at) / Fold change /veh A4GNT (11735810_at) / RFU PRB3 (11715151_x_at) / Fold change /veh PRB3 (11715151_x_at) / RFU TUBB4B (11761932_at) / Fold change /veh TUBB4B (11761932_at) / RFU CAPN14 (11732068_a_at) / Fold change /veh CAPN14 (11732068_a_at) / RFU TMCC2 (11721928_a_at) / Fold change /veh TMCC2 (11721928_a_at) / RFU IRGQ (11745062_a_at) / Fold change /veh IRGQ (11745062_a_at) / RFU FAM174B (11720279_a_at) / Fold change /veh FAM174B (11720279_a_at) / RFU TMPRSS4 (11748680_a_at) / Fold change /veh TMPRSS4 (11748680_a_at) / RFU FAM212B (11763350_a_at) / Fold change /veh FAM212B (11763350_a_at) / RFU PLEKHG5 (11743358_a_at) / Fold change /veh PLEKHG5 (11743358_a_at) / RFU ZSCAN30 (11745921_a_at) / Fold change /veh ZSCAN30 (11745921_a_at) / RFU CMKLR1 (11741424_a_at) / Fold change /veh CMKLR1 (11741424_a_at) / RFU LOC101060620 /// MAPK8IP1 (11723275_at) / Fold change /veh LOC101060620 /// MAPK8IP1 (11723275_at) / RFU SPTSSB (11747773_x_at) / Fold change /veh SPTSSB (11747773_x_at) / RFU PRSS12 (11739890_at) / Fold change /veh PRSS12 (11739890_at) / RFU BIN1 (11741810_x_at) / Fold change /veh BIN1 (11741810_x_at) / RFU WNT11 (11732464_a_at) / Fold change /veh WNT11 (11732464_a_at) / RFU C10orf10 (11716521_a_at) / Fold change /veh C10orf10 (11716521_a_at) / RFU C5orf56 (11738089_at) / Fold change /veh C5orf56 (11738089_at) / RFU CYB561 (11721691_x_at) / Fold change /veh CYB561 (11721691_x_at) / RFU ANKRD19P (11752326_a_at) / Fold change /veh ANKRD19P (11752326_a_at) / RFU OR2T12 /// OR2T33 /// OR2T8 (11738714_s_at) / Fold change /veh OR2T12 /// OR2T33 /// OR2T8 (11738714_s_at) / RFU VCAN (11748164_a_at) / Fold change /veh VCAN (11748164_a_at) / RFU JSRP1 (11732532_at) / Fold change /veh JSRP1 (11732532_at) / RFU KRTAP10-11 (11738290_x_at) / Fold change /veh KRTAP10-11 (11738290_x_at) / RFU MYO3A (11730013_a_at) / Fold change /veh MYO3A (11730013_a_at) / RFU EBF3 (11725865_a_at) / Fold change /veh EBF3 (11725865_a_at) / RFU CAMK2N1 (11719241_x_at) / Fold change /veh CAMK2N1 (11719241_x_at) / RFU C5orf56 (11738088_a_at) / Fold change /veh C5orf56 (11738088_a_at) / RFU OLFML3 (11715873_a_at) / Fold change /veh OLFML3 (11715873_a_at) / RFU LOC100653217 /// NTM (11731650_a_at) / Fold change /veh LOC100653217 /// NTM (11731650_a_at) / RFU MAPK11 (11762145_a_at) / Fold change /veh MAPK11 (11762145_a_at) / RFU FIZ1 (11724087_x_at) / Fold change /veh FIZ1 (11724087_x_at) / RFU OASL (11726364_x_at) / Fold change /veh OASL (11726364_x_at) / RFU SOX15 (11748057_x_at) / Fold change /veh SOX15 (11748057_x_at) / RFU CD79A (11719716_a_at) / Fold change /veh CD79A (11719716_a_at) / RFU HIST1H1D (11736915_at) / Fold change /veh HIST1H1D (11736915_at) / RFU CASKIN2 (11723855_a_at) / Fold change /veh CASKIN2 (11723855_a_at) / RFU LOC730098 (11760151_x_at) / Fold change /veh LOC730098 (11760151_x_at) / RFU OR4N2 (11742367_at) / Fold change /veh OR4N2 (11742367_at) / RFU PRRT2 (11749266_a_at) / Fold change /veh PRRT2 (11749266_a_at) / RFU SNX32 (11753110_a_at) / Fold change /veh SNX32 (11753110_a_at) / RFU CDHR5 (11726645_a_at) / Fold change /veh CDHR5 (11726645_a_at) / RFU RCAN1 (11760418_a_at) / Fold change /veh RCAN1 (11760418_a_at) / RFU FAM167A (11723789_a_at) / Fold change /veh FAM167A (11723789_a_at) / RFU FAM26E (11764081_at) / Fold change /veh FAM26E (11764081_at) / RFU ISYNA1 (11749810_s_at) / Fold change /veh ISYNA1 (11749810_s_at) / RFU ACY1 (11761880_at) / Fold change /veh ACY1 (11761880_at) / RFU 11764098_at / Fold change /veh 11764098_at / RFU SAMD14 (11745864_x_at) / Fold change /veh SAMD14 (11745864_x_at) / RFU NPB (11741838_a_at) / Fold change /veh NPB (11741838_a_at) / RFU TMPRSS6 (11731388_a_at) / Fold change /veh TMPRSS6 (11731388_a_at) / RFU KRTAP10-2 (11738614_at) / Fold change /veh KRTAP10-2 (11738614_at) / RFU ARHGAP8 /// PRR5-ARHGAP8 (11727945_x_at) / Fold change /veh ARHGAP8 /// PRR5-ARHGAP8 (11727945_x_at) / RFU KRTAP5-7 /// NADSYN1 (11734609_at) / Fold change /veh KRTAP5-7 /// NADSYN1 (11734609_at) / RFU RASL12 (11751679_a_at) / Fold change /veh RASL12 (11751679_a_at) / RFU CDKN2B (11736163_a_at) / Fold change /veh CDKN2B (11736163_a_at) / RFU PRF1 (11729649_at) / Fold change /veh PRF1 (11729649_at) / RFU, ZNF638 /// ZNF638-IT1 / Fold change vs veh, ZNF638 /// ZNF638-IT1 / RFU, PANK3 / Fold change vs veh, PANK3 / RFU, SH3YL1 / Fold change vs veh, SH3YL1 / RFU, ZEB2 / Fold change vs veh, ZEB2 / RFU, NRIP1 / Fold change vs veh, NRIP1 / RFU, PTTG1IP / Fold change vs veh, PTTG1IP / RFU, CAPN2 / Fold change vs veh, CAPN2 / RFU, MED14 / Fold change vs veh, MED14 / RFU, SNORA58 / Fold change vs veh, SNORA58 / RFU, C1orf63 / Fold change vs veh, C1orf63 / RFU, LRRFIP1 / Fold change vs veh, LRRFIP1 / RFU, NDUFAF7 / Fold change vs veh, NDUFAF7 / RFU, SLC12A2 / Fold change vs veh, SLC12A2 / RFU, IBTK / Fold change vs veh, IBTK / RFU, ESF1 / Fold change vs veh, ESF1 / Fold change vs veh, TMEM50B / RFU, TAOK1 / Fold change vs veh, TAOK1 / RFU, ACBD3 / Fold change vs veh, ACBD3 / RFU, TMA16 / Fold change vs veh, TMA16 / RFU, RWDD3 / Fold change vs veh, RWDD3 / RFU, BCAT1 / Fold change vs veh, BCAT1 / RFU, EDEM3 / Fold change vs veh, EDEM3 / RFU, TMEM33 / Fold change vs veh, TMEM33 / RFU, WDR75 / Fold change vs veh, WDR75 / RFU, AHCTF1 / Fold change vs veh, AHCTF1 / RFU, TFRC / Fold change vs veh, TFRC / RFU, ZDHHC17 / Fold change vs veh, ZDHHC17 / RFU, NOM1 / Fold change vs veh, NOM1 / RFU, ARL8B / Fold change vs veh, ARL8B / RFU, ZBTB11 / Fold change vs veh, ZBTB11 / RFU, TAMM41 / Fold change vs veh, TAMM41 / RFU, KIAA1704 /// LOC100996395 / Fold change vs veh, KIAA1704 /// LOC100996395 / RFU, ING1 / Fold change vs veh, ING1 / RFU, TRMT61B / Fold change vs veh, TRMT61B / RFU, FUBP3 / Fold change vs veh, FUBP3 / RFU, TP53 / Fold change vs veh, TP53 / RFU, TNKS2 / Fold change vs veh, TNKS2 / RFU, ZFP14 / Fold change vs veh, ZFP14 / RFU, ACTR2 / Fold change vs veh, ACTR2 / RFU, PPP3R1 / Fold change vs veh, PPP3R1 / RFU, PIK3R1 / Fold change vs veh, PIK3R1 / RFU, HNRNPA1 / Fold change vs veh, HNRNPA1 / RFU, RNF170 / Fold change vs veh, RNF170 / RFU, ZNF28 / Fold change vs veh, ZNF28 / RFU, RNGTT / Fold change vs veh, RNGTT / RFU, OGT / Fold change vs veh, OGT / RFU, BRD1 / Fold change vs veh, BRD1 / RFU, MARS / Fold change vs veh, MARS / RFU, ZNF655 / Fold change vs veh, ZNF655 / RFU, FAHD1 / Fold change vs veh, FAHD1 / RFU, BDP1 / Fold change vs veh, BDP1 / RFU, LRRCC1 / Fold change vs veh, LRRCC1 / RFU, ARID1A / Fold change vs veh, ARID1A / RFU, ZNF146 / Fold change vs veh, ZNF146 / RFU, ZNF330 / Fold change vs veh, ZNF330 / RFU, GPN3 / Fold change vs veh, GPN3 / RFU, C9orf123 / Fold change vs veh, C9orf123 / RFU, N4BP2L2 / Fold change vs veh, N4BP2L2 / RFU, ARFIP1 / Fold change vs veh, ARFIP1 / RFU, FAM179B / Fold change vs veh, FAM179B / RFU, BCL10 / Fold change vs veh, BCL10 / RFU, UHRF1BP1L / Fold change vs veh, UHRF1BP1L / RFU, BET1 / Fold change vs veh, BET1 / RFU, CNOT2 / Fold change vs veh, CNOT2 / RFU, ZNF268 / Fold change vs veh, ZNF268 / Fold change vs veh, ZNF507 / RFU, DGCR2 / Fold change vs veh, DGCR2 / RFU, WDSUB1 / Fold change vs veh, WDSUB1 / Fold change vs veh, HSP90B1 /// MIR3652 / RFU, ADSS / Fold change vs veh, ADSS / RFU, GK / Fold change vs veh, GK / RFU, ZNF148 / Fold change vs veh, ZNF148 / RFU, TAF9 / Fold change vs veh, TAF9 / RFU, SLC1A5 / Fold change vs veh, SLC1A5 / RFU, SLMO2 / Fold change vs veh, SLMO2 / RFU, ABCC4 / Fold change vs veh, ABCC4 / RFU, LOC101060439 /// RAP1B / Fold change vs veh, LOC101060439 /// RAP1B / RFU, RFX7 / Fold change vs veh, RFX7 / RFU, GTPBP10 / Fold change vs veh, GTPBP10 / RFU, CNEP1R1 / Fold change vs veh, CNEP1R1 / RFU, BIVM-ERCC5 /// ERCC5 / Fold change vs veh, BIVM-ERCC5 /// ERCC5 / RFU, ILF3 / Fold change vs veh, ILF3 / RFU 11762660_at / Fold change /veh 11762660_at / RFU VCAN (11757783_s_at) / Fold change /veh VCAN (11757783_s_at) / RFU DDX43 (11728927_at) / Fold change /veh DDX43 (11728927_at) / RFU KRT8 (11758188_x_at) / Fold change /veh KRT8 (11758188_x_at) / RFU NKD1 (11759106_at) / Fold change /veh NKD1 (11759106_at) / RFU SRD5A1 (11742802_a_at) / Fold change /veh SRD5A1 (11742802_a_at) / RFU TPSAB1 /// TPSB2 (11721975_s_at) / Fold change /veh TPSAB1 /// TPSB2 (11721975_s_at) / RFU GSTM3 (11746129_a_at) / Fold change /veh GSTM3 (11746129_a_at) / RFU IL23R (11737362_x_at) / Fold change /veh IL23R (11737362_x_at) / RFU TMEM51 (11727254_a_at) / Fold change /veh TMEM51 (11727254_a_at) / RFU PIWIL2 (11732686_x_at) / Fold change /veh PIWIL2 (11732686_x_at) / RFU ORM1 (11744905_x_at) / Fold change /veh ORM1 (11744905_x_at) / RFU CCDC152 (11743942_at) / Fold change /veh CCDC152 (11743942_at) / RFU ECM1 (11717891_a_at) / Fold change /veh ECM1 (11717891_a_at) / RFU IL23R (11748794_a_at) / Fold change /veh IL23R (11748794_a_at) / RFU TNFAIP8L3 (11732012_x_at) / Fold change /veh TNFAIP8L3 (11732012_x_at) / RFU MBOAT4 (11741988_at) / Fold change /veh MBOAT4 (11741988_at) / RFU 11764193_at / Fold change /veh 11764193_at / RFU TMEM53 (11763286_at) / Fold change /veh TMEM53 (11763286_at) / RFU MAGEB2 (11727129_at) / Fold change /veh MAGEB2 (11727129_at) / RFU TMEM200A (11744735_a_at) / Fold change /veh TMEM200A (11744735_a_at) / RFU CCDC152 (11751479_a_at) / Fold change /veh CCDC152 (11751479_a_at) / RFU FAM211A (11726209_a_at) / Fold change /veh FAM211A (11726209_a_at) / RFU RGS16 (11746705_a_at) / Fold change /veh RGS16 (11746705_a_at) / RFU VCAN (11755009_s_at) / Fold change /veh VCAN (11755009_s_at) / RFU RHOB (11743442_s_at) / Fold change /veh RHOB (11743442_s_at) / RFU RGS16 (11720943_a_at) / Fold change /veh RGS16 (11720943_a_at) / RFU RGS16 (11720944_at) / Fold change /veh RGS16 (11720944_at) / RFU, VPS4B / Fold change vs veh, VPS4B / RFU, CREB1 / Fold change vs veh, CREB1 / RFU, DNAJC13 / Fold change vs veh, DNAJC13 / RFU, GNAQ / Fold change vs veh, GNAQ / RFU, CDK5R1 / Fold change vs veh, CDK5R1 / RFU, ZRANB3 / Fold change vs veh, ZRANB3 / RFU, CUL4A / Fold change vs veh, CUL4A / RFU, CCNY / Fold change vs veh, CCNY / RFU, UFL1 / Fold change vs veh, UFL1 / RFU, COG3 / Fold change vs veh, COG3 / RFU, DIAPH2 / Fold change vs veh, DIAPH2 / RFU, SKA2 / Fold change vs veh, SKA2 / RFU, AFF3 / Fold change vs veh, AFF3 / RFU, LMF1 / Fold change vs veh, LMF1 / RFU, IPO11 / Fold change vs veh, IPO11 / RFU, DFFB / Fold change vs veh, DFFB / RFU, FOXP1 / Fold change vs veh, FOXP1 / RFU, CARD8 / Fold change vs veh, CARD8 / RFU, STRN3 / Fold change vs veh, STRN3 / RFU, ADK / Fold change vs veh, ADK / RFU, RASSF2 / Fold change vs veh, RASSF2 / RFU, WIPF1 / Fold change vs veh, WIPF1 / RFU, LARP1B / Fold change vs veh, LARP1B / RFU, RASA1 / Fold change vs veh, RASA1 / RFU, RB1 / Fold change vs veh, RB1 / RFU, PPFIA1 / Fold change vs veh, PPFIA1 / RFU, MAT2A / Fold change vs veh, MAT2A / RFU, CCT5 / Fold change vs veh, CCT5 / RFU, WDR92 / Fold change vs veh, WDR92 / RFU, CUX1 / Fold change vs veh, CUX1 / RFU, TTC7A / Fold change vs veh, TTC7A / RFU, TMEM135 / Fold change vs veh, TMEM135 / RFU, DEPTOR / Fold change vs veh, DEPTOR / RFU, CPM / Fold change vs veh, CPM / RFU, DNAJB6 / Fold change vs veh, DNAJB6 / RFU, CACNA2D3 / Fold change vs veh, CACNA2D3 / RFU, DTX4 / Fold change vs veh, DTX4 / RFU, TFCP2 / Fold change vs veh, TFCP2 / RFU, GMCL1 /// GMCL1P1 / Fold change vs veh, GMCL1 /// GMCL1P1 / RFU, AEBP2 / Fold change vs veh, AEBP2 / RFU, SNHG1 /// SNORD22 /// SNORD25 /// SNORD26 /// SNORD27 /// SNORD28 /// SNORD29 /// SNORD31 / Fold change vs veh, SNHG1 /// SNORD22 /// SNORD25 /// SNORD26 /// SNORD27 /// SNORD28 /// SNORD29 /// SNORD31 / Fold change (Aza/veh), C12orf56 (ProbeSet 11735607_a_at) / Fold change (ACY-1035/veh), C12orf56 (ProbeSet 11735607_a_at) / Fold change (Aza/veh), FGFR1OP (ProbeSet 11751329_s_at) / Fold change (ACY-1035/veh), FGFR1OP (ProbeSet 11751329_s_at) / Fold change (Aza/veh), VPS36 (ProbeSet 11739960_a_at) / Fold change (ACY-1035/veh), VPS36 (ProbeSet 11739960_a_at) / RFU SYPL1 (11715823_x_at) / Fold change /veh SYPL1 (11715823_x_at) / RFU IGFBP7 (11715501_s_at) / Fold change /veh IGFBP7 (11715501_s_at) / RFU REEP3 (11722064_at) / Fold change /veh REEP3 (11722064_at) / RFU IGLL1 (11728026_x_at) / Fold change /veh IGLL1 (11728026_x_at): dose or concentration left out as unconfirmed
Conditions: ProbeSet 11743362_s_at; LIST B

## Nc1ncn([C@@H]2O[C@H](CO)[C@@H](O)[C@H]2O)c(=O)n1 [azacitidine]
  Fold change vs veh, ADSS: 0.89
